# Test results: patent US10934310B2, “Inhibitors of Bruton's tyrosine kinase and method of their use” (JANSSEN PHARMACEUTICA NV, priority 2015, dated 2021)
# Biological target: unphosphorylated-BTK kinase domain (UP-BTK), GST-tagged human BTK (389-659aa) (Homo sapiens (Human), UniProt Q06187)
# Experiment: BTK Kinase Lanthascreen Binding Assay
# Settings: Lanthascreen binding, 60 minutes incubation; pIC50 = negative log of the IC50 in molar
# Method: BTK Kinase Lanthascreen Binding Assay:
# A BTK kinase lanthascreen binding assay monitors compound binding to unphosphorylated-BTK kinase domain (UP-BTK), by competing with a fluorescent labeled tracer. […] Data were analyzed using Xlfit™ version 5.3 from ID Business Solutions (Guildford), Microsoft Excel add-in. pIC50 refers to the negative log of the IC50 in molar.
# Sequence of unphosphorylated-BTK kinase domain (UP-BTK), GST-tagged human BTK (389-659aa) (Q06187 389-659): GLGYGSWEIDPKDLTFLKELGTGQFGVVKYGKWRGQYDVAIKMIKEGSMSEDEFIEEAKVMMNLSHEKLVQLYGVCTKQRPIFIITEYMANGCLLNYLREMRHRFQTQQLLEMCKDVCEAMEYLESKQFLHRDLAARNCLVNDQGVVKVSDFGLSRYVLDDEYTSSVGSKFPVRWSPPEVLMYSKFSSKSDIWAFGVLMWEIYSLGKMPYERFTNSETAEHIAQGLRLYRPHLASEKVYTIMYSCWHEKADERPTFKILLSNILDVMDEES
row,Structure (SMILES),BTK_I_binding pIC50
1,"C=CC(=O)N[C@@H]1CCC[C@@H](NC(=O)c2sc3nccc4c3c2NC(=O)N4c2ccc(Oc3ccccc3)cn2)C1 (relative stereo) [Example 344, N-((1*R,3*R)-3-Acrylamidocyclohexyl)-4-oxo-5-(5-phenoxypyridin-2-yl)-4,5-dihydro-3H-1-thia-3,5,8-triazaacenaphthylene-2-carboxamide]",6.11
2,"CCC(=O)N[C@H]1CCCC[C@H]1NC(=O)c1sc2nccc3c2c1NC(=O)N3c1cnc(Oc2ccccc2)cc1C (relative stereo) [Example 381, 5-(*S)-(4-Methyl-6-phenoxypyridin-3-yl)-4-oxo-N-((1R,2S)-2-propionamidocyclohexyl)-4,5-dihydro-3H-1-thia-3,5,8-triazaacenaphthylene-2-carboxamide]",6.75

# Same assay, conditions: compound, 50 nM Tracer 236, 2 nM anti-GST antibody, 60 minutes; pIC50 = negative log of the IC50 in molar
row,Structure (SMILES),BTK_I_binding pIC50
1,"C=CC(=O)N[C@H]1CC[C@@H](NC(=O)c2sc3nccc4c3c2NC(=O)N4c2ccc(Oc3ccccc3)cc2C)CC1 (single isomer, unassigned) [Example 1, N-((1S,4S)-4-Acrylamidocyclohexyl)-5-(*S)-(2-methyl-4-phenoxyphenyl)-4-oxo-4,5-dihydro-3H-1-thia-3,5,8-triazaacenaphthylene-2-carboxamide]",7.61
2,"Cc1cc(Oc2ccccc2)ccc1N1C(=O)Nc2c(C(=O)N[C@H]3CC[C@@H](O)CC3)sc3nccc1c23 (single isomer, unassigned) [Example 83, N-((1S,4S)-4-Hydroxycyclohexyl)-5-(*S)-(2-methyl-4-phenoxyphenyl)-4-oxo-4,5-dihydro-3H-1-thia-3,5,8-triazaacenaphthylene-2-carboxamide]",7.60
3,"Cc1cc(Oc2ccccc2)ccc1N1C(=O)Nc2c(C(=O)N[C@H]3CC[C@@H](O)CC3)sc3nccc1c23 (single isomer, unassigned) [Example 84, N-((1S,4S)-4-Hydroxycyclohexyl)-5-(*R)-(2-methyl-4-phenoxyphenyl)-4-oxo-4,5-dihydro-3H-1-thia-3,5,8-triazaacenaphthylene-2-carboxamide]",6.21
4,"Cc1cc(Oc2ccccc2)ccc1N1C(=O)Nc2c(C(=O)N[C@H]3CC[C@H](O)CC3)sc3nccc1c23 (single isomer, unassigned) [Example 85, N-((1R,4R)-4-Hydroxycyclohexyl)-5-(*S)-(2-methyl-4-phenoxyphenyl)-4-oxo-4,5-dihydro-3H-1-thia-3,5,8-triazaacenaphthylene-2-carboxamide]",7.67

# Further lines, results first:
row,BTK_I_binding pIC50,Structure (SMILES)
1,6.42,"CNC1CC[C@H](NC(=O)c2sc3nccc4c3c2NC(=O)N4c2ccc(Oc3ccccc3)cc2C)C1 (mixture of isomers) [Example 80, 5-(2-Methyl-4-phenoxyphenyl)-N-((1S)-3-(methylamino)cyclopentyl)-4-oxo-4,5-dihydro-3H-1-thia-3,5,8-triazaacenaphthylene-2-carboxamide]"
2,7.31,"Cc1cc(Oc2ccccc2)ccc1N1C(=O)Nc2c(C(=O)N[C@@H]3CCCC[C@@H]3N(C)C)sc3nccc1c23 (relative stereo) [Example 7, N-((1R,2S)-2-(Dimethylamino)cyclohexyl)-5-(*S)-(2-methyl-4-phenoxyphenyl)-4-oxo-4,5-dihydro-3H-1-thia-3,5,8-triazaacenaphthylene-2-carboxamide]"
3,7.89,"CC(=O)N[C@@H]1CC[C@H](NC(=O)c2sc3nccc4c3c2NC(=O)N4c2ccc(Oc3ccccc3)cc2C)C1 (relative stereo) [Example 88, N-((1S,3R)-3-Acetamidocyclopentyl)-5-(*S)-(2-methyl-4-phenoxyphenyl)-4-oxo-4,5-dihydro-3H-1-thia-3,5,8-triazaacenaphthylene-2-carboxamide]"
4,6.75,"CNCC(=O)N[C@H]1CCC[C@H](NC(=O)c2sc3nccc4c3c2NC(=O)N4c2ccc(Oc3ccccc3)cc2C)C1 (relative stereo) [Example 250, 5-(*S)-(2-Methyl-4-phenoxyphenyl)-N-((1R,3S)-3-(2-(methylamino)acetamido)cyclohexyl)-4-oxo-4,5-dihydro-3H-1-thia-3,5,8-triazaacenaphthylene-2-carboxamide]"
5,7.69,"Cc1cc(Oc2ccccc2)ccc1N1C(=O)Nc2c(C(=O)N[C@@H]3CCCC[C@@H]3N)sc3nccc1c23 (single isomer, unassigned) [Example 5, N-((1R,2S)-2-Aminocyclohexyl)-5-(*S)-(2-methyl-4-phenoxyphenyl)-4-oxo-4,5-dihydro-3H-1-thia-3,5,8-triazaacenaphthylene-2-carboxamide]"
6,7.95,"Cc1cc(Oc2ccccc2)ccc1N1C(=O)Nc2c(C(=O)N[C@@H]3CCC[C@@H]3O)sc3nccc1c23 (single isomer, unassigned) [Example 8, N-((1R,2S)-2-Hydroxycyclopentyl)-5-(*S)-(2-methyl-4-phenoxyphenyl)-4-oxo-4,5-dihydro-3H-1-thia-3,5,8-triazaacenaphthylene-2-carboxamide]"
7,5.77,"C=CC(=O)N[C@H]1CCC[C@@H]1NC(=O)c1sc2nccc3c2c1NC(=O)N3c1ccc(Oc2ccccc2)cc1C (single isomer, unassigned) [Example 56, N-((1S,2S)-2-Acrylamidocyclopentyl)-5-(*R)-(2-methyl-4-phenoxyphenyl)-4-oxo-4,5-dihydro-3H-1-thia-3,5,8-triazaacenaphthylene-2-carboxamide]"
8,5.36,"Cc1cc(Oc2ccccc2)ccc1N1C(=O)Nc2c(C(=O)N[C@@H]3CCC[C@H]3O)sc3nccc1c23 (single isomer, unassigned) [Example 61, N-((1R,2R)-2-Hydroxycyclopentyl)-5-(*R)-(2-methyl-4-phenoxyphenyl)-4-oxo-4,5-dihydro-3H-1-thia-3,5,8-triazaacenaphthylene-2-carboxamide]"
9,7.41,"CC(=O)N[C@@H]1CCC[C@H]1NC(=O)c1sc2nccc3c2c1NC(=O)N3c1ccc(Oc2ccccc2)cc1C (single isomer, unassigned) [Example 67, N-((1R,2R)-2-Acetamidocyclopentyl)-5-(*S)-(2-methyl-4-phenoxyphenyl)-4-oxo-4,5-dihydro-3H-1-thia-3,5,8-triazaacenaphthylene-2-carboxamide]"

# Same assay, conditions: read-out: BTK_I_binding pIC50 (converted)
row,Structure (SMILES),IC50
1,"N[C@H]1CC[C@@H](NC(=O)c2sc3nccc4c3c2NC(=O)N4c2ccc(Oc3ccccc3)cc2)C1 (racemic) [Example 96, N-(rac-(1,3-cis)-3-Aminocyclopentyl)-4-oxo-5-(4-phenoxyphenyl)-4,5-dihydro-3H-1-thia-3,5,8-triazaacenaphthylene-2-carboxamide]",77.6 nM
2,"C=CC(=O)NC1CCC(NC(=O)c2sc3nccc4c3c2NC(=O)N4c2ccc(Oc3ccccc3)cc2)C1 (racemic) [Example 109, N-((1RS,3RS)-3-Acrylamidocyclopentyl)-4-oxo-5-(4-phenoxyphenyl)-4,5-dihydro-3H-1-thia-3,5,8-triazaacenaphthylene-2-carboxamide]",14.1 nM
3,"N[C@@H]1CC[C@@H](NC(=O)c2sc3nccc4c3c2NC(=O)N4c2ccc(Oc3ccccc3)cc2)C1 (racemic) [Example 147, trans-N-((1RS,3RS)-3-Aminocyclopentyl)-4-oxo-5-(4-phenoxyphenyl)-4,5-dihydro-3H-1-thia-3,5,8-triazaacenaphthylene-2-carboxamide]",234 nM
4,"C=CC(=O)N[C@@H]1CC[C@@H](NC(=O)c2sc3nccc4c3c2NC(=O)N4c2ccc(Oc3ccccc3)nc2)C1 (racemic) [Example 188, N-((1RS,3RS)-3-Acrylamidocyclopentyl)-4-oxo-5-(6-phenoxypyridin-3-yl)-4,5-dihydro-3H-1-thia-3,5,8-triazaacenaphthylene-2-carboxamide]",77.6 nM
5,"C=CC(=O)NC1CCC(NC(=O)c2sc3nccc4c3c2NC(=O)N4c2ccc(Oc3ccccc3)cn2)C1 (racemic) [Example 214, N-((1RS,3RS)-3-Acrylamidocyclopentyl)-4-oxo-5-(5-phenoxypyridin-2-yl)-4,5-dihydro-3H-1-thia-3,5,8-triazaacenaphthylene-2-carboxamide]",14.1 nM
6,"C=CC(=O)N[C@@H]1CCC[C@@H](NC(=O)c2sc3nccc4c3c2NC(=O)N4c2ccc(Oc3ccccc3)cn2)C1 (racemic) [Example 216, N-((1RS,3RS)-3-Acrylamidocyclohexyl)-4-oxo-5-(5-phenoxypyridin-2-yl)-4,5-dihydro-3H-1-thia-3,5,8-triazaacenaphthylene-2-carboxamide]",36.3 nM
7,"N[C@@H]1CC[C@H](NC(=O)c2sc3nccc4c3c2NC(=O)N4c2ccc(Oc3ccccc3)nc2)C1 (racemic) [Example 289, racemic cis N-((1RS,3RS)-3-Aminocyclopentyl)-4-oxo-5-(6-phenoxypyridin-3-yl)-4,5-dihydro-3H-1-thia-3,5,8-triazaacenaphthylene-2-carboxamide]",1700 nM
8,"N[C@H]1CC[C@H](NC(=O)c2sc3nccc4c3c2NC(=O)N4c2ccc(Oc3ccccc3)nc2)C1 (racemic) [Example 290, racemic trans N-((1RS,3RS)-3-Aminocyclopentyl)-4-oxo-5-(6-phenoxypyridin-3-yl)-4,5-dihydro-3H-1-thia-3,5,8-triazaacenaphthylene-2-carboxamide]",2240 nM

# Now from value to compound:
row,IC50,Structure (SMILES)
1,110 nM,"Cc1cc(Oc2ccccc2)ccc1N1C(=O)Nc2c(C(=O)NC3CCCCC3O)sc3nccc1c23 (racemic) [Example 27, N-((1RS,2RS)-2-Hydroxycyclohexyl)-5-(2-methyl-4-phenoxyphenyl)-4-oxo-4,5-dihydro-3H-1-thia-3,5,8-triazaacenaphthylene-2-carboxamide]"
2,191 nM,"Cc1cc(Oc2ccccc2)ccc1N1C(=O)Nc2c(C(=O)N[C@H]3CCCC[C@@H]3O)sc3nccc1c23 (racemic) [Example 36, N-((1RS,2RS)-2-Hydroxycyclohexyl)-5-(2-methyl-4-phenoxyphenyl)-4-oxo-4,5-dihydro-3H-1-thia-3,5,8-triazaacenaphthylene-2-carboxamide]"
